Results: patent US9125913B2, “Bcl-2-selective apoptosis-inducing agents for the treatment of cancer and immune diseases” (AbbVie Inc., priority 2008, dated 2015)

system: GST-Bcl-2; assay: TR-FRET binding assay, Bcl-2; conditions: TR-FRET Ki values
In short: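 Ki values come from Wang's competitive-binding equation applied to TR-FRET signal (excitation 340/35 nm; emission 520/525 nm F-Bak peptide, 495/510 nm Tb antibody). Protein, probe and antibody incubated with compound 3 h at room temperature; dilution series began at 50 μM as 2× stock in 10% DMSO.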

Question: How did the “Binding selectivity ratio (Bcl-XL Ki/Bcl-2 Ki)” value (“Binding selectivity ratio” for short) turn out when `CC(C1=C(c2ccc(Cl)cc2)CC(C)(C)CC1)N1CCN(c2ccc(C(=O)NS(=O)(=O)c3ccc(NC4CCN(C5CCOCC5)CC4)c([N+](=O)[O-])c3)c(Oc3ccc4[nH]ccc4c3)c2)CC1` (centres unmarked) [EXAMPLE 258, 4-(4-{1-[2-(4-chlorophenyl)-4,4-dimethylcyclohex-1-en-1-yl]ethyl}piperazin-1-yl)-2-(1H-indol-5-yloxy)-N-({3-nitro-4-[(1-tetrahydro-2H-pyran-4-ylpiperidin-4-yl)amino]phenyl}sulfonyl)benzamide] was run?
Answer: Its value is 86.

Question: `CC1(C)CCC(CN2CCN(c3ccc(C(=O)NS(=O)(=O)c4ccc(NCC5CCCCC5)c([N+](=O)[O-])c4)c(Oc4ccc5[nH]ccc5c4)c3)CC2)=C(c2ccc(Cl)cc2)C1` [EXAMPLE 259, 4-(4-{[2-(4-chlorophenyl)-4,4-dimethylcyclohex-1-en-1-yl]methyl}piperazin-1-yl)-N-({4-[(cyclohexylmethyl)amino]-3-nitrophenyl}sulfonyl)-2-(1H-indol-5-yloxy)benzamide] was tested. Which “Binding selectivity ratio” value did it give?
Answer: Its value is >330.9.

Question: With `CC1(C)CCC(CN2CCN(c3ccc(C(=O)NS(=O)(=O)c4ccc(NN5CCOCC5)c([N+](=O)[O-])c4)c(Oc4ccc5[nH]ccc5c4)c3)CC2)=C(c2ccc(Cl)cc2)C1` [EXAMPLE 260, 4-(4-{[2-(4-chlorophenyl)-4,4-dimethylcyclohex-1-en-1-yl]methyl}piperazin-1-yl)-2-(1H-indol-5-yloxy)-N-{[4-(morpholin-4-ylamino)-3-nitrophenyl]sulfonyl}benzamide] as the molecule, how does the “Binding selectivity ratio” value read?
Answer: The value was >607.2.

Question: With `CC1(C)CCC(CN2CCN(c3ccc(C(=O)NS(=O)(=O)c4ccc(NN5CCOCC5)c([N+](=O)[O-])c4)c(Oc4cccc5[nH]ccc45)c3)CC2)=C(c2ccc(Cl)cc2)C1` [EXAMPLE 262, 4-(4-{[2-(4-chlorophenyl)-4,4-dimethylcyclohex-1-en-1-yl]methyl}piperazin-1-yl)-2-(1H-indol-4-yloxy)-N-{[4-(morpholin-4-ylamino)-3-nitrophenyl]sulfonyl}benzamide] as the molecule, how does the “Binding selectivity ratio” value read?
Answer: The value was 219.9.

Question: `CC1(C)CCC(CN2CCN(c3ccc(C(=O)NS(=O)(=O)c4ccc(NC5CCOCC5)c([N+](=O)[O-])c4)c(Oc4ccc5[nH]ccc5c4)c3)CC2)=C(c2ccc(Cl)cc2)C1` [EXAMPLE 263, 4-(4-{[2-(4-chlorophenyl)-4,4-dimethylcyclohex-1-en-1-yl]methyl}piperazin-1-yl)-2-(1H-indol-5-yloxy)-N-{[3-nitro-4-(tetrahydro-2H-pyran-4-ylamino)phenyl]sulfonyl}benzamide] was tested. Which “Binding selectivity ratio” value did it give?
Answer: The value was >2090.0.

Question: For `CC1(C)CCC(CN2CCN(c3ccc(C(=O)NS(=O)(=O)c4ccc(NCC5(C)COC5)c([N+](=O)[O-])c4)c(Oc4ccc5[nH]ccc5c4)c3)CC2)=C(c2ccc(Cl)cc2)C1` [EXAMPLE 264, 4-(4-{[2-(4-chlorophenyl)-4,4-dimethylcyclohex-1-en-1-yl]methyl}piperazin-1-yl)-2-(1H-indol-5-yloxy)-N-[(4-{[(3-methyloxetan-3-yl)methyl]amino}-3-nitrophenyl)sulfonyl]benzamide], which “Binding selectivity ratio” value is on record?
Answer: Its value is >2808.4.

Question: `COC1CCC(Nc2ccc(S(=O)(=O)NC(=O)c3ccc(N4CCN(CC5=C(c6ccc(Cl)cc6)CC(C)(C)CC5)CC4)cc3Oc3ccc4[nH]ccc4c3)cc2[N+](=O)[O-])CC1` (centres unmarked) [EXAMPLE 265, 4-(4-{[2-(4-chlorophenyl)-4,4-dimethylcyclohex-1-en-1-yl]methyl}piperazin-1-yl)-2-(1H-indol-5-yloxy)-N-({4-[(4-methoxycyclohexyl)amino]-3-nitrophenyl}sulfonyl)benzamide] was tested. Which “Binding selectivity ratio” value did it give?
Answer: Its value is >388.8.

Question: `CC1(C)CCC(CN2CCN(c3ccc(C(=O)NS(=O)(=O)c4ccc(NCCCN5CCS(=O)(=O)CC5)c([N+](=O)[O-])c4)c(Oc4ccc5[nH]ccc5c4)c3)CC2)=C(c2ccc(Cl)cc2)C1` [EXAMPLE 266, 4-(4-{[2-(4-chlorophenyl)-4,4-dimethylcyclohex-1-en-1-yl]methyl}piperazin-1-yl)-N-[(4-{[3-(1,1-dioxidothiomorpholin-4-yl)propyl]amino}-3-nitrophenyl)sulfonyl]-2-(1H-indol-5-yloxy)benzamide] was tested. Which “Binding selectivity ratio” value did it give?
Answer: The value was >3607.7.
